Several values for one entry are separate records, joined by “and”; a condition that tells them apart may be missing. Identical values can stand only once.
Assays:
[1] = test system: BT-474; conditions: 72 h
Procedure, shortened: (§1)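 Two sequential readouts followed a 72 h incubation of breast cancer cell lines with compound at 5 concentrations in 10-fold steps over a compound-specific 10,000-fold range: CellTox Green fluorescence (485/520 nm) for cell death, then CellTiter-Glo luminescence, after 10 min at room temperature, for viability. Each plate was normalised to 0.1 % DMSO and a positive kill control. Dose-response curves were fitted for EC50, censored at the top concentration.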

[2] = test system: BT-549; conditions: 72 h
Procedure, shortened: as §1

[3] = test system: CAL-120; conditions: 72 h
Procedure, shortened: as §1

[4] = test system: CAL-148; conditions: 72 h
Procedure, shortened: as §1

[5] = test system: CAL-51; conditions: 72 h
Procedure, shortened: as §1

[6] = test system: CAL-85-1; conditions: 72 h
Procedure, shortened: as §1

[7] = test system: DU-4475; conditions: 72 h
Procedure, shortened: as §1

[8] = test system: HCC1143; conditions: 72 h
Procedure, shortened: as §1

[9] = test system: HCC1599; conditions: 72 h
Procedure, shortened: as §1

[10] = test system: HCC1937; conditions: 72 h
Procedure, shortened: as §1

[11] = test system: HDQ-P1; conditions: 72 h
Procedure, shortened: as §1

[12] = test system: Hs578T; conditions: 72 h
Procedure, shortened: as §1

[13] = test system: MCF-10A; conditions: 72 h
Procedure, shortened: as §1

[14] = test system: MDA-MB-231; conditions: 72 h
Procedure, shortened: as §1

[15] = test system: MDA-MB-436; conditions: 72 h
Procedure, shortened: as §1

[16] = test system: MDA-MB-453; conditions: 72 h
Procedure, shortened: as §1

[17] = test system: MFM-223; conditions: 72 h
Procedure, shortened: as §1

[18] = test system: SK-BR-3; conditions: 72 h
Procedure, shortened: as §1

[19] = test system: CAL-51; conditions: 72 h; remark: listed apart in the source
Procedure, shortened: (§2)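 Plates of 384 wells holding compound in 5 µl medium received breast cancer cell lines in 20 µl suspension and were incubated 72 h. CellTiter-Blue (2.5 µl, 2 h, 37 °C) was used for viability, read at 560/590 nm, and every plate was normalised to vehicle and a positive kill control and assessed by Z'-factor. The EC50 derives from a percent-inhibition dose-response curve fit censored at the highest concentration, leaving out rows whose drug sensitivity score was zero.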

[20] = test system: CAL-85-1; conditions: 72 h; remark: listed apart in the source
Procedure, shortened: as §2

[21] = test system: DU-4475; conditions: 72 h; remark: listed apart in the source
Procedure, shortened: as §2

[22] = test system: HDQ-P1; conditions: 72 h; remark: listed apart in the source
Procedure, shortened: as §2

[23] = test system: MDA-MB-453; conditions: 72 h; remark: listed apart in the source
Procedure, shortened: as §2

[24] = test system: BT-549; test: normalised viability (% of control), CellTiter-Blue; higher = more viable cells (about 100 = DMSO control); conditions: incubation time: 72 h
Procedure, shortened: (§3)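 The reported quantity is normalised viability at a single listed concentration of the series. Compound in 5 µl medium was pre-dispensed into 384-well plates and 20 µl of breast cancer cell suspension was added for 72 h. A 2 h, 37 °C CellTiter-Blue step (2.5 µl) preceded fluorescence reading at 560/590 nm, and plates were normalised to vehicle (100) and a positive kill control (0).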

[25] = test system: CAL-51; test: as above; conditions: incubation time: 72 h
Procedure, shortened: as §3

[26] = test system: CAL-85-1; test: as above; conditions: incubation time: 72 h
Procedure, shortened: as §3

[27] = test system: HCC1143; test: as above; conditions: incubation time: 72 h
Procedure, shortened: as §3

[28] = test system: HCC1599; test: as above; conditions: incubation time: 72 h
Procedure, shortened: as §3

[29] = test system: HDQ-P1; test: as above; conditions: incubation time: 72 h
Procedure, shortened: as §3

[30] = test system: MDA-MB-231; test: as above; conditions: incubation time: 72 h
Procedure, shortened: as §3

Row | EC50, CellTiter-Glo [1] | EC50, CellTiter-Glo [2] | EC50, CellTiter-Glo [8] | EC50, CellTiter-Glo [9] | EC50, CellTiter-Glo [10] | EC50, CellTiter-Glo [14] | EC50, CellTiter-Glo [15] | EC50, CellTiter-Glo [16] | EC50, CellTiter-Glo [18] | EC50, CellTiter-Blue viability [23] | Structure (SMILES) | EC50, CellTiter-Glo [3] | EC50, CellTiter-Glo [4] | EC50, CellTiter-Glo [5] | EC50, CellTiter-Glo [6] | EC50, CellTiter-Glo [7] | EC50, CellTiter-Glo [11] | EC50, CellTiter-Glo [12] | EC50, CellTiter-Glo [13] | EC50, CellTiter-Glo [17] | EC50, CellTiter-Blue viability [19] | EC50, CellTiter-Blue viability [20] | EC50, CellTiter-Blue viability [21] | EC50, CellTiter-Blue viability [22] | normalised viability ([24]; 100 nM) | normalised viability ([25]; 10 nM) | normalised viability ([26]; 10 nM) | normalised viability ([27]; 100 nM) | normalised viability ([28]; 100 nM) | normalised viability ([29]; 10 nM) | normalised viability ([30]; 100 nM) | normalised viability ([24]; 10 nM) | normalised viability ([25]; 1 nM) | normalised viability ([26]; 1 nM) | normalised viability ([27]; 10 nM) | normalised viability ([28]; 10 nM) | normalised viability ([29]; 1 nM) | normalised viability ([30]; 10 nM)
1 | 458 nM | 1010 nM | 803 nM | 826 nM | 2180 nM | 564 nM | 1250 nM | 158 nM | 229 nM | 125 nM | O=C(/C=C/c1cccc(S(=O)(=O)Nc2ccccc2)c1)NO [Belinostat] | 634 nM | 370 nM | 29.2 nM | 738 nM | 358 nM | 2830 nM | 989 nM | 1150 nM | 264 nM | 1170 nM | 666 nM | 478 nM | 488 nM | 91.2% | 105% | 89.7% | 96.6% | 82.8% | 121% | 93.7% | – | – | – | – | – | – | –
2 | 2550 nM | 9390 nM | – | 6850 nM | – | – | 1160 nM | – | 1180 nM | 4750 nM | CCc1c2c(nc3ccc(OC(=O)N4CCC(N5CCCCC5)CC4)cc13)-c1cc3c(c(=O)n1C2)COC(=O)[C@]3(O)CC [Irinotecan] | 2590 nM | 1450 nM | 3290 nM | – | 1840 nM | – | – | 4290 nM | – | 2940 nM | 3510 nM | 2550 nM | > 10000 nM | 91.5% and 90% | 99.2% and 118% | 90.9% and 99.3% | 89.1% and 112% | – | 102% and 126% | 90.9% and 103% | – | – | – | – | – | – | –
3 | 31.8 nM | 81.3 nM | 33.5 nM | 46.4 nM | 168 nM | 24.3 nM | 58.2 nM | 9.95 nM | 13.7 nM | 4.43 nM | Cc1[nH]c2ccccc2c1CCNCc1ccc(/C=C/C(=O)NO)cc1 [Panobinostat] | 62.3 nM | 21 nM | 22.6 nM | 33.4 nM | 18.3 nM | 115 nM | 43.2 nM | 89.1 nM | 27.6 nM | 49.7 nM | 23.8 nM | 18.2 nM | 35 nM | – | – | – | – | – | – | – | 106% | 116% | 99.3% | 86.7% | 84.7% | 102% | 94.6%
4 | – | 0.44 nM | 0.91 nM | – | 0.46 nM | – | 1.03 nM | 1.22 nM | 0.78 nM | 0.59 nM | CO[C@H]1C[C@@H]2CC[C@@H](C)[C@@](O)(O2)C(=O)C(=O)N2CCCC[C@H]2C(=O)O[C@H]([C@H](C)C[C@@H]2CC[C@@H](OP(C)(C)=O)[C@H](OC)C2)CC(=O)[C@H](C)/C=C(\C)[C@@H](O)[C@@H](OC)C(=O)[C@H](C)C[C@H](C)/C=C/C=C/C=C/1C [Ridaforolimus] | 0.9 nM | 2.27 nM | 1.61 nM | 0.57 nM | 2.24 nM | 6.62 nM | 0.42 nM | – | 0.98 nM | 1.65 nM | 0.17 nM | 1.13 nM | 3.88 nM | – | – | – | – | – | – | – | 62.4% | 79% | 67.4% | 56.4% | 91.8% | 110% | 71.9%
5 | 93.2 nM | 125 nM | 405 nM | – | 81.3 nM | 366 nM | 335 nM | 55.8 nM | – | 86.3 nM | CC(C)C[C@@H](C(=O)N[C@H](C(=O)OC1CCCC1)c1ccccc1)[C@H](O)C(=O)NO [Tosedostat] | 127 nM | 327 nM | 854 nM | 182 nM | – | 630 nM | 8270 nM | – | 528 nM | 6030 nM | 2940 nM | 126 nM | 268 nM | 72.7% | 101% | 89.4% | 89.3% | 102% | 113% | 72.6% | – | – | – | – | – | – | –
6 | 4.16 nM | 65.5 nM | 11.4 nM | 7.29 nM | 11.2 nM | 8.02 nM | 3.9 nM | 25.2 nM | 16.8 nM | 6.99 nM | COCC[n+]1c2c(n(Cc3cnccn3)c1C)C(=O)c1ccccc1C2=O [YM155] | 3.32 nM | 19.9 nM | 16.6 nM | 5.5 nM | 57.8 nM | 17.3 nM | 212 nM | 27.1 nM | 27.2 nM | 20.2 nM | 6.98 nM | 114 nM | 11.4 nM | 34% | 70.5% | 29.7% | 12.4% | 10% | 64.2% | 1.71% | – | – | – | – | – | – | –

Row | Structure (SMILES) | EC50, CellTiter-Glo [1] | EC50, CellTiter-Glo [2] | EC50, CellTiter-Glo [8] | EC50, CellTiter-Glo [9] | EC50, CellTiter-Glo [10] | EC50, CellTiter-Glo [14] | EC50, CellTiter-Glo [15] | EC50, CellTiter-Glo [16] | EC50, CellTiter-Glo [18] | EC50, CellTiter-Blue viability [23] | EC50, CellTiter-Glo [3] | EC50, CellTiter-Glo [4] | EC50, CellTiter-Glo [5] | EC50, CellTiter-Glo [6] | EC50, CellTiter-Glo [7] | EC50, CellTiter-Glo [11] | EC50, CellTiter-Glo [12] | EC50, CellTiter-Glo [13] | EC50, CellTiter-Glo [17] | EC50, CellTiter-Blue viability [19] | EC50, CellTiter-Blue viability [20] | EC50, CellTiter-Blue viability [21] | EC50, CellTiter-Blue viability [22] | normalised viability ([24]; 100 nM) | normalised viability ([25]; 10 nM) | normalised viability ([26]; 10 nM) | normalised viability ([27]; 100 nM) | normalised viability ([28]; 100 nM) | normalised viability ([29]; 10 nM) | normalised viability ([30]; 100 nM) | normalised viability ([24]; 10 nM) | normalised viability ([25]; 1 nM) | normalised viability ([26]; 1 nM) | normalised viability ([27]; 10 nM) | normalised viability ([28]; 10 nM) | normalised viability ([29]; 1 nM) | normalised viability ([30]; 10 nM)
7 | O=C(Nc1ccncc1)C(=O)c1cn(Cc2ccc(Cl)cc2)c2ccccc12 [Indibulin] | 282 nM | 185 nM | 754 nM | 129 nM | 245 nM | 1040 nM | 203 nM | 164 nM | 355 nM | 36.1 nM | 408 nM | – | 165 nM | 169 nM | 3810 nM | 523 nM | 482 nM | – | 280 nM | 631 nM | 201 nM | 1530 nM | 72.5 nM | 69.9% | 100% | 106% | 64% | 146% | 95.8% | 52% | – | – | – | – | – | – | –
